Laboratory results taken from US20120190586A1, “Synthetic Receptors for Identification of Protein Posttranslation Modifications” (priority 2009, published 2012).
Values joined by “and” are separate entries in the source; they are usually repeats but may differ in a detail not shown here. Equal entries are not always repeated. Where two headings read alike, the source gives them in different places.

Key:
[1] = target: T1, H3 K9 (unmethylated, FAM-QTAR-K-STG-NH2) (Homo sapiens, UniProt P68431); assay: Fluorescence anisotropy binding of A2B receptors to FAM-labeled histone 3 peptide
T1 construct: peptide consisting of residues 5-11 of histone 3 (H3 K9Men); made in house; host or cells: solid-phase chemical peptide synthesis
Method: (§1) Fluorescence anisotropy was used to measure the dissociation constant of rac- and meso-A2B to a peptide consisting of residues 5-11 of histone 3 (H3 K9Men), with each of the methylation states at Lys 9 as well as an N-terminal carboxyfluorescein (FAM) for fluorescence detection. Binding affinities for H3 K9Me3 were also confirmed by ITC (see below).
(§2) H3 K9Men: FAM-QTAR-KMen-STG-NH2, n=0-3
(§3) Fluorescence Anisotropy. Binding assays were performed with purified rac- or meso-A2B and fluorescein labeled histone 3 peptides. Assays were prepared in 384-well plates (Corning) with a total volume of 50 μL per well, containing 20 μM labeled peptide and increasing concentrations of A2B in buffer (10 mM phosphate pH 8.5). Plates were spun down and allowed to incubate for at least 30 minutes before analysis. Fluorescence anisotropy was measured on a PHERAstar (BMG Labtech) using FP485, 520A, and 520B filters at 27° C. The anisotropy data was plotted as a function A2B concentration and each plot was fitted in KaleidaGraph to the following equation (Wang, Y.; Killian, J.; Hamasaki, K.; Rando, R. R. Biochemistry 1996, 35, 12338-12346):
(§4) where r is fluorescence anisotropy, ro is the initial anisotropy value, r∞ is the maximum anisotropy value, a is the peptide concentration, x is the concentration of A2B, and kd is the dissociation constant. All measurements were taken in duplicate or triplicate.

[2] = target: T2, H3 K9Me (FAM-QTAR-KMe-STG-NH2) (Homo sapiens, UniProt P68431); assay: as above; details: 27° C., 10 mM phosphate buffer pH 8.5; errors in parentheses
T2 construct: peptide consisting of residues 5-11 of histone 3 (H3 K9Men); made in house; host or cells: solid-phase chemical peptide synthesis
Method: as §1, §2, §3, §4

[3] = target: T3, H3 K9Me2 (FAM-QTAR-KMe2-STG-NH2) (Homo sapiens, UniProt P68431); assay: as above; details: 27° C., 10 mM phosphate buffer pH 8.5; errors in parentheses
T3 construct: peptide consisting of residues 5-11 of histone 3 (H3 K9Men); made in house; host or cells: solid-phase chemical peptide synthesis
Method: as §1, §2, §3, §4

[4] = target: T4, H3 K9Me3 (FAM-QTAR-KMe3-STG-NH2) (Homo sapiens, UniProt P68431); assay: as above; details: for Kd: 27° C., 10 mM phosphate buffer pH 8.5, errors in parentheses; for Affinity for H3 K9Me3 peptide (in words): fluorescence anisotropy
T4 construct: peptide consisting of residues 5-11 of histone 3 (H3 K9Men); made in house; host or cells: solid-phase chemical peptide synthesis
Method: as §1, §2, §3, §4

H3 K9Me3 R8G = target: T5, H3 K9Me3 R8G (Homo sapiens, UniProt P68431, R9G); assay: Fluorescence anisotropy binding to mutant H3 tail with Gly in place of Arg8; details: 27° C., 10 mM phosphate buffer pH 8.5; errors in parentheses
T5 construct: peptide consisting of residues 5-11 of histone 3 (H3 K9Men); made in house; host or cells: solid-phase chemical peptide synthesis
Method: FIG. 11. Fluorescence anisotropy of rac-A2B with H3 KMe3 where Arg8 has been mutated to Gly8 (10 mM sodium phosphate buffer pH 8.5).
as §3, §4

[5] = target: T6, WGGG-GKMe3 (Histone 3 peptide, Gly8) (Homo sapiens, UniProt P68431, R9G); assay: Isothermal titration calorimetry, peptide titrated into A2B; type: binding
T6 construct: made in house; host or cells: solid-phase chemical peptide synthesis
Method: FIG. 12. Histone 3 peptide (WGGG-GKMe3) used as the titrant in ITC experiments to confirm A2B binding to KMe3.
Isothermal Titration calorimetry. Isothermal titration calorimetry measurements were conducted using an ITC200 from MicroCal, LLC to verify the binding data obtained by fluorescence anisotropy. A single 0.2 μL aliquot followed by 38 aliquots of 1 μL were titrated into the calorimetric cell every 2.5 minutes. The titrant used to determine the binding to KMe3 was a 2.0 mM solution of the H3 tail peptide in FIG. 12 (in 10 mM phosphate buffer, pH 8.5), containing a Trp for concentration determination and separated from the natural sequence by 3 glycine spacers. This peptide also contained Gly8 as opposed to Arg8 which is found in the native sequence. It has been shown that this mutation has minimal affect on the overall binding affinity. The cell was filled with a 0.2 mM solution of either rac- or meso-A2B (in 10 mM phosphate buffer, pH 8.5). All measurements were carried out at 26° C.

[6] = target: T7, H3 tail, Lys9 mutated to Gly (Homo sapiens, UniProt P68431, K10G); assay: Binding to H3 tail with Lys9 mutated to Gly
T7 construct: A mutant H3 tail with Gly in place of Arg8; made in house; host or cells: solid-phase chemical peptide synthesis

Ac-KMe3-G-NH2 = assay: Amplification in biased A2B dynamic combinatorial library (LC-MS); details: biased library A:B 2:1, 7.5 mM total; Ac-KMe3-G-NH2 template
Method: Using a biased library in which building blocks A and B were mixed in a 2:1 ratio (7.5 mM total), the selectivity of the receptors for different methylation states of lysine was investigated, using Ac—KMen-G-NH2 as the guests (n=0-3). A diverse library was generated in the absence of a template, with A2 and A2B3 as the dominant species and rac-A2B and meso-A2B constituting only 2.4% and 1.1% of the total library composition respectively.
Dynamic Combinatorial Chemistry. The relevant building blocks were individually dissolved in water, adding sufficient 1.0 M aqueous NaOH to fully deprotonate the thiols and carboxylic acids on the building blocks, using sonication when necessary. The pH of each solution was then adjusted to 8.5 using 1.0 M aqueous HCl and 1.0 M aqueous NaOH. […] The vials were capped and analyzed at various time points.
Analytical LC-MS. […] Mass spectra (ESI+) were acquired in ultrascan mode by using a drying temperature of 350° C., a nebulizer pressure of 45 psi, a drying gas flow of 10 L/min, and a capillary voltage of 3000 V. The reactions were monitored weekly (3 μL injections) until equilibrium was reached after about 3 weeks. […] The peak areas were integrated at 254 nm and the amplification factors were calculated (A.F.=% area of A2B in templated DCL/% area of A2B in untemplated DCL).

[7] = 26° C., 10 mM phosphate buffer pH 8.5, read-out: Kd by ITC, binding to KMe3

O=C(O)C1=C(C(=O)O)C2c3ccc4cc3C1c1ccc(cc12)SSc1ccc2c(c1)C1C(C(=O)O)=C(C(=O)O)C2c2cc(ccc21)SSc1cc(cc(C(=O)O)c1)SS4 (racemic) [rac-A2B]
Kd ([1]; 27° C., 10 mM phosphate buffer pH 8.5): > 1200 µM
Binding to the unmethylated histone tail (in words) ([1]; fluorescence anisotropy): no appreciable binding
Kd [2]: 166 µM
Kd [3]: 58 µM
Kd [4]: 25 µM
Affinity for H3 K9Me3 peptide (in words) [4]: low micromolar affinity
Kd (H3 K9Me3 R8G): 34 µM
Kd [5, 7]: 20 µM
Binding to H3 tail with Lys9 mutated to Gly (in words) [6]: total loss of binding
Amplification in templated DCL, KMe3 guest (Ac-KMe3-G-NH2): approximately 10 fold

O=C(O)C1=C(C(=O)O)[C@@H]2c3ccc4cc3[C@H]1c1ccc(cc12)SSc1ccc2c(c1)[C@H]1C(C(=O)O)=C(C(=O)O)[C@@H]2c2cc(ccc21)SSc1cc(cc(C(=O)O)c1)SS4 [meso-A2B]
Kd [3]: 73 µM
Kd [4]: 28 µM
Affinity for H3 K9Me3 peptide (in words) [4]: low micromolar affinity
Kd [5, 7]: 12.8 µM and 13 µM
Kd ([5]; titration of WGGG-GKMe3 into receptor, read-out: Kd by ITC, binding to KMe3 (unit inferred)): 12.8 µM
Amplification in templated DCL, KMe3 guest (Ac-KMe3-G-NH2): approximately 10 fold
